From patent publication US11584765B2 (priority 2017, dated 2023)

What follows are compounds tested on C57BL/6 mice (assay: animal or person). Settings: Mus musculus, sc, 0.5 h, s.c. administration, 30 min, 55° C. water, read-out: ED50 (mg/kg) at 30 min on C57BL/6 mice in Warm-water Tail-flick Test.
Type: in vivo

With `CCOC[C@@]1(CCc2csc(C)c2)CCN(Cc2ccc(C)nc2)C1` [Compound 335, (S)-5-((3-(ethoxymethyl)-3-(2-(5-methylthiophen-3-yl)ethyl)pyrrolidin-1-yl)methyl)-2-methylpyridine] as the compound, how does the ED50 read?
Its ED50 is < 10 mg/kg.

With `CCOC[C@@]1(CCc2cccnn2)CCN(Cc2cccnc2)C1` [Compound 406, (S)-3-(2-(3-(ethoxymethyl)-1-(pyridin-3-ylmethyl)pyrrolidin-3-yl)ethyl)pyridazine] as the compound, how does the ED50 read?
The ED50 was > 10 mg/kg.

With `C=CCN1CCC(CCc2ccccc2)(COCC)CC1` [Compound 80, 1-allyl-4-(ethoxymethyl)-4-phenethylpiperidine] as the compound, how does the ED50 read?
The ED50 was > 10 mg/kg.

Which ED50 does the source give for `CCOC[C@@]1(CCc2cccs2)CCN(C(C)(C)c2ccc(C)nc2)C1` [Compound 353, (S)-5-(2-(3-(ethoxymethyl)-3-(2-(thiophen-2-yl)ethyl)pyrrolidin-1-yl)propan-2-yl)-2-methylpyridine] here?
The ED50 was < 10 mg/kg.

For `CCOC[C@@]1(CCc2cscc2C)CCN(Cc2ccc(C)nc2C)C1` [Compound 331, (S)-3-((3-(ethoxymethyl)-3-(2-(4-methylthiophen-3-yl)ethyl)pyrrolidin-1-yl)methyl)-2,6-dimethylpyridine], which ED50 is on record?
The ED50 was < 10 mg/kg.
